The supplement of paper PMC11451515

System: P12-Ichikawa
Test: cell viability relative to DMSO control; higher = less cytotoxic
Conditions: 48 h
How it was run: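 Library compounds in DMSO were pin-dosed in an 11-point threefold series (47 μM to 0.79 nM) onto leukemia cells in 1536-well plates (5 μl). Plates held 500 cells/well of NOMO1 or SEM or 1000 cells/well of P12-Ichikawa, each adapted for at least four passages in each medium. Luminescence was read with CellTiter-Glo One after 48 h at 37°C. Viability means the per-plate percentage relative to DMSO wells, using cell-free wells as background.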

[1] = HPLM + 10% dialyzed FBS, 0.000781 µM
[2] = HPLM + 10% dialyzed FBS, 0.00234 µM
[3] = HPLM + 10% dialyzed FBS, 0.00702 µM
[4] = HPLM + 10% dialyzed FBS, 0.0211 µM
[5] = HPLM + 10% dialyzed FBS, 0.0632 µM
[6] = HPLM + 10% dialyzed FBS, 0.19 µM
[7] = HPLM + 10% dialyzed FBS, 0.569 µM
[8] = HPLM + 10% dialyzed FBS, 1.71 µM
[9] = HPLM + 10% dialyzed FBS, 5.12 µM
[10] = HPLM + 10% dialyzed FBS, 15.4 µM
[11] = HPLM + 10% dialyzed FBS, 46.1 µM
[12] = RPMI 5 mM glucose + 10% FBS, 0.000781 µM
[13] = RPMI 5 mM glucose + 10% FBS, 0.00234 µM
[14] = RPMI 5 mM glucose + 10% FBS, 0.00702 µM
[15] = RPMI 5 mM glucose + 10% FBS, 0.0211 µM
[16] = RPMI 5 mM glucose + 10% FBS, 0.0632 µM
[17] = RPMI 5 mM glucose + 10% FBS, 0.19 µM
[18] = RPMI 5 mM glucose + 10% FBS, 0.569 µM
[19] = RPMI 5 mM glucose + 10% FBS, 1.71 µM
[20] = RPMI 5 mM glucose + 10% FBS, 5.12 µM
[21] = RPMI 5 mM glucose + 10% FBS, 15.4 µM
[22] = RPMI 5 mM glucose + 10% FBS, 46.1 µM
[23] = RPMI 5 mM glucose + 10% dialyzed FBS, 0.000781 µM
[24] = RPMI 5 mM glucose + 10% dialyzed FBS, 0.00234 µM
[25] = RPMI 5 mM glucose + 10% dialyzed FBS, 0.00702 µM
[26] = RPMI 5 mM glucose + 10% dialyzed FBS, 0.0211 µM
[27] = RPMI 5 mM glucose + 10% dialyzed FBS, 0.0632 µM
[28] = RPMI 5 mM glucose + 10% dialyzed FBS, 0.19 µM
[29] = RPMI 5 mM glucose + 10% dialyzed FBS, 0.569 µM
[30] = RPMI 5 mM glucose + 10% dialyzed FBS, 1.71 µM
[31] = RPMI 5 mM glucose + 10% dialyzed FBS, 5.12 µM
[32] = RPMI 5 mM glucose + 10% dialyzed FBS, 15.4 µM
[33] = RPMI 5 mM glucose + 10% dialyzed FBS, 46.1 µM

Row | Compound | cell viability [1] | cell viability [2] | cell viability [3] | cell viability [4] | cell viability [5] | cell viability [6] | cell viability [7] | cell viability [8] | cell viability [9] | cell viability [10] | cell viability [11] | cell viability [12] | cell viability [13] | cell viability [14] | cell viability [15] | cell viability [16] | cell viability [17] | cell viability [18] | cell viability [19] | cell viability [20] | cell viability [21] | cell viability [22] | cell viability [23] | cell viability [24] | cell viability [25] | cell viability [26] | cell viability [27] | cell viability [28] | cell viability [29] | cell viability [30] | cell viability [31] | cell viability [32] | cell viability [33]
1 | CNC(=O)c1cc(Oc2ccc(NC(=O)Nc3ccc(Cl)c(C(F)(F)F)c3)c(F)c2)ccn1 | 86.4% | 89.8% | 93.8% | 91.3% | 92% | 95.4% | 87.8% | 91% | 88.3% | 81.4% | 67.7% | 85.4% | 92.6% | 87.8% | 97.8% | 86.2% | 95.6% | 94.2% | 83.6% | 87.1% | 86.8% | 65.5% | 91.7% | 89.9% | 90.5% | 98.6% | 94.1% | 91.5% | 84.9% | 90.3% | 84.7% | 89.1% | 73.5%
2 | CCN(CCO)CCCC(C)Nc1ccnc2cc(Cl)ccc12 (stereo not given) | 99.5% | 114% | 114% | 111% | 110% | 105% | 75.6% | 112% | 57.5% | 14.7% | 9.45% | 102% | 110% | 110% | 103% | 108% | 106% | 74.6% | 105% | 66.2% | 27.3% | 10.7% | 102% | 108% | 106% | 117% | 112% | 103% | 90.7% | 102% | 3.75% | 56.4% | 15.4%
3 | COC1=CC=CC(=C1/C2=N/CC3=C(N=C(NC4=CC(=C(C=C4)C(O)=O)OC)N=C3)C5=CC=C(Cl)C=C25)F | 82.2% | 87.8% | 82.3% | 87.8% | 56% | 16.6% | 13.5% | 12% | 13.9% | 18.2% | 20.5% | 93.8% | 81.6% | 77.9% | 83% | 49% | 22.4% | 16% | 16% | 15.8% | 22.1% | 28.5% | 81% | 80.3% | 77.8% | 77.7% | 49.6% | 30% | 24.2% | 23% | 27.2% | 29.7% | 35.4%
4 | N[C@@H](Cc1cc(I)c(Oc2cc(I)c(O)c(I)c2)c(I)c1)C(=O)O | 118% | 116% | 106% | 113% | 113% | 103% | 106% | 109% | 106% | 101% | 98.6% | 126% | 120% | 121% | 113% | 123% | 124% | 122% | 107% | 112% | 114% | 104% | 111% | 107% | 108% | 109% | 109% | 114% | 103% | 111% | 104% | 103% | 101%
5 | CCC1=C2CN3C(=O)\C4=C(/C=C3/C2=NC5=CC=C(O)C=C15)[C@@](O)(CC)C(=O)OC4 | 97% | 95% | 33.6% | 14.5% | 9.38% | 6.95% | 6.95% | 4.6% | 5.03% | 4.34% | 4.16% | 93.6% | 91.9% | 28.2% | 10.6% | 8.05% | 6.33% | 6.06% | 5.12% | 4.73% | 4.49% | 4.85% | 98.3% | 83.8% | 30.2% | 15.1% | 11% | 7.31% | 6.37% | 5.25% | 5.83% | 5.8% | 5%
6 | CN1CCN(CC1)C/2=N/C3=CC=CC=C3NC4=C2C=C(C)S4 | 98% | 93.9% | 105% | 98.5% | 98.8% | 104% | 107% | 96.9% | 87.4% | 97.4% | 91.1% | 92.8% | 104% | 104% | 102% | 102% | 105% | 102% | 101% | 72.2% | 102% | 84.8% | 94.1% | 99.9% | 97.9% | 96.8% | 98.3% | 99.9% | 99.1% | 91.4% | 92.1% | 93% | 91.9%
7 | CC=CC1=C(C(=O)O)N2C(=O)[C@@H](NC(=O)[C@H](N)c3ccc(O)cc3)[C@H]2SC1.O | 97.8% | 110% | 121% | 105% | 126% | 90% | 116% | 111% | 113% | 13.8% | 15% | 88.6% | 103% | 111% | 109% | 120% | 115% | 104% | 112% | 107% | 17.7% | 13.7% | 100% | 108% | 107% | 113% | 118% | 109% | 110% | 116% | 114% | 45.3% | 18.8%
8 | CCOC(=O)c1c(/C(C#N)=C\N)c2ccc(Cl)c(Cl)c2n1C | 90.1% | 94.9% | 84.9% | 97.5% | 91.7% | 92.2% | 92.1% | 91.6% | 84.7% | 83% | 91.7% | 88.1% | 88.7% | 85.5% | 94.8% | 83.2% | 86.3% | 81.1% | 91% | 82.8% | 81.2% | 87.4% | 84.5% | 86.2% | 89.9% | 92.8% | 90.6% | 96.9% | 87.9% | 88.7% | 89% | 92.8% | 90.8%
9 | Cc1n[nH]c(C)c1Cc1sc2c(c1C(=O)N1C[C@H](O)CO1)c(=O)n(C)c(=O)n2CC(C)C | 116% | 117% | 119% | 121% | 109% | 98.8% | 93.4% | 92.6% | 94.3% | 91.4% | 83.4% | 117% | 118% | 131% | 120% | 109% | 107% | 95.6% | 95.8% | 84.3% | 89.9% | 83.8% | 113% | 118% | 114% | 114% | 107% | 98.2% | 91.6% | 92% | 94% | 88.5% | 83.7%
10 | O=C1C(CCC(O)c2ccc(F)cc2)C(c2ccc(O)cc2)N1c1ccc(F)cc1 (stereo not given) | 108% | 112% | 114% | 116% | 119% | 124% | 117% | 117% | 117% | 120% | 106% | 114% | 117% | 123% | 118% | 122% | 121% | 126% | 121% | 127% | 121% | 117% | 101% | 106% | 105% | 117% | 118% | 111% | 120% | 116% | 124% | 114% | 106%
11 | NNC(=O)c1ccncc1 | 111% | 124% | 119% | 121% | 121% | 127% | 127% | 117% | 101% | 103% | 85.7% | 106% | 107% | 111% | 124% | 111% | 114% | 122% | 120% | 116% | 107% | 84.7% | 115% | 122% | 113% | 119% | 116% | 127% | 118% | 121% | 103% | 108% | 76.2%
12 | Cc1ccnc(N[S+](=O)([O-])c2ccc(NC(=O)Nc3ccc([S+](=O)([O-])Nc4nccc(C)n4)cc3)cc2)n1 | 92.4% | 97.5% | 104% | 108% | 102% | 47.4% | 56.9% | 7.44% | 8.58% | 9.29% | 7.33% | 87.9% | 85.5% | 94.6% | 106% | 114% | 58.6% | 60.3% | 7.51% | 7.48% | 8.73% | 5.6% | 86.9% | 97.1% | 95.4% | 101% | 102% | 46.7% | 59.4% | 7.71% | 7.35% | 8.39% | 5.02%
13 | CCOC\1=C(/C(=O)NC2=CC=C(OC3=C(Cl)C(=NC=C3)N)C(=C2)F)C(=O)N(\C=C1)C4=CC=C(F)C=C4 | 107% | 110% | 102% | 115% | 104% | 101% | 94.7% | 91.3% | 93.8% | 81.2% | 27.4% | 99.2% | 104% | 111% | 98.5% | 102% | 102% | 96.1% | 95.2% | 97.7% | 80.1% | 30.9% | 106% | 101% | 104% | 104% | 102% | 91% | 99.7% | 81.9% | 91.8% | 68.5% | 28.1%
14 | CC(=O)O[C@@]12CO[C@@H]1C[C@H](O)[C@]3(C)[C@@H]2[C@H](OC(=O)C4=CC=CC=C4)[C@]5(O)C[C@H](O)/C(=C(/[C@@H](O)C3=O)C5(C)C)C | 97.5% | 106% | 72.1% | 115% | 114% | 117% | 120% | 120% | 98.1% | 36.6% | 13.7% | 100% | 110% | 69.7% | 113% | 116% | 119% | 122% | 113% | 88.6% | 28.7% | 7.33% | 100% | 114% | 77.5% | 117% | 113% | 112% | 121% | 119% | 104% | 43.9% | 18.5%
15 | CC(=O)OCC(CCn1cnc2cnc(N)nc21)COC(C)=O | 92.3% | 103% | 109% | 106% | 113% | 102% | 108% | 106% | 112% | 110% | 111% | 89.8% | 95% | 103% | 103% | 108% | 97.3% | 102% | 102% | 101% | 106% | 103% | 92.5% | 101% | 98% | 87.9% | 105% | 104% | 97% | 106% | 102% | 103% | 97.3%
